Reference: US10301280B2 (Plexxikon Inc., priority 2012, dated 2019)

Target: c-kit kinase (Homo sapiens (Human), UniProt P10721)
Test: c-Kit biochemical assay (AlphaScreen)
Conditions: c-kit biochemical inhibitory activity
How it was run: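 AlphaScreen of biotin-(E4Y)3 (100 nM) phosphorylation by c-kit (0.1 ng) in HEPES pH 7.2, Mg/Mn, 10 μM ATP, 5% DMSO, 1 h at room temperature; variant uses 100 μM ATP, 30 nM biotin-(E4Y)10, 1 ng enzyme. PY20 acceptor/streptavidin donor signal versus 8-point concentration gives IC50.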

Sequence of c-kit kinase (P10721 26-976): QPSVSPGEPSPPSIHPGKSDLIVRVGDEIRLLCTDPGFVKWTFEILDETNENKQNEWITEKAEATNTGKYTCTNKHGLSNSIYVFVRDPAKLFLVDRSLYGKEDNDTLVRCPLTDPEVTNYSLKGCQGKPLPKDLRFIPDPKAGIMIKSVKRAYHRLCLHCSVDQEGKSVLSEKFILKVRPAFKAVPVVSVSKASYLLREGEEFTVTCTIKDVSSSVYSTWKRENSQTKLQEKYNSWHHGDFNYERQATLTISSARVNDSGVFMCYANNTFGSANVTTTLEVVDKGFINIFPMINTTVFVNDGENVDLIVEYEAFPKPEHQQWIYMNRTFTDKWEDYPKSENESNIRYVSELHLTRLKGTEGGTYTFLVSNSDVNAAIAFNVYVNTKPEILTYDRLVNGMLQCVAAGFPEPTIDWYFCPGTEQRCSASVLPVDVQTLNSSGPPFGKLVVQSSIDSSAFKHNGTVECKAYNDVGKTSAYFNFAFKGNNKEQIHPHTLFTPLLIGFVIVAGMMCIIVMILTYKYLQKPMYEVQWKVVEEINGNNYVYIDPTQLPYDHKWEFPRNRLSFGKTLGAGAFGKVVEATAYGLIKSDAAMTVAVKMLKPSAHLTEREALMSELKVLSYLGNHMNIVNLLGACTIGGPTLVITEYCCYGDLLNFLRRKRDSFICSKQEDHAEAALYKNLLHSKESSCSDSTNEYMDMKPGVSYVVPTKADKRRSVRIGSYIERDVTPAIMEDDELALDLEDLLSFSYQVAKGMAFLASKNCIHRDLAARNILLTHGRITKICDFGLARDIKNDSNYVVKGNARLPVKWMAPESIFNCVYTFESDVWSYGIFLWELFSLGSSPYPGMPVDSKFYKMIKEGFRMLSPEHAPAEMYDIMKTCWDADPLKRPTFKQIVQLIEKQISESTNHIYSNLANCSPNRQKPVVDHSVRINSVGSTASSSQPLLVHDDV

Row | Structure (SMILES) | IC50 [µM]
1 | Cc1n[nH]c(C(=O)Nc2cnc3[nH]c(-c4ccnc(N5CCN(C(=O)C6CC6)CC5)c4)cc3c2)c1C [P-2187, N-[2-[2-[4-(cyclopropanecarbonyl)piperazin-1-yl]-4-pyridyl]-1H-pyrrolo[2,3-b]pyridin-5-yl]-3,4-dimethyl-1H-pyrazole-5-carboxamide] | 1 to 10
2 | Cc1n[nH]c(C(=O)Nc2cnc3[nH]c(-c4ccnc(N5CCN(C(=O)CC#N)CC5)c4)cc3c2)c1C [P-2189, N-[2-[2-[4-(2-cyanoacetyl)piperazin-1-yl]-4-pyridyl]-1H-pyrrolo[2,3-b]pyridin-5-yl]-3,4-dimethyl-1H-pyrazole-5-carboxamide] | 0.0001 to 1
3 | Cc1n[nH]c(C(=O)Nc2cnc3[nH]c(-c4ccc(F)cc4OC(F)F)cc3c2)c1C [P-2268, N-[2-[2-(difluoromethoxy)-4-fluoro-phenyl]-1H-pyrrolo[2,3-b]pyridin-5-yl]-3,4-dimethyl-1H-pyrazole-5-carboxamide] | 1 to 10
4 | Cc1n[nH]c(C(=O)Nc2cnc3[nH]c(-c4cncc(C#N)c4)cc3c2)c1C [P-2270, N-[2-(5-cyano-3-pyridyl)-1H-pyrrolo[2,3-b]pyridin-5-yl]-3,4-dimethyl-1H-pyrazole-5-carboxamide] | 10 to 200
5 | Cc1n[nH]c(C(=O)Nc2cnc3[nH]c(C4=CCOCC4)cc3c2)c1C [P-2271, N-[2-(3,6-dihydro-2H-pyran-4-yl)-1H-pyrrolo[2,3-b]pyridin-5-yl]-3,4-dimethyl-1H-pyrazole-5-carboxamide] | 0.0001 to 1
6 | Cc1n[nH]c(C(=O)Nc2cnc3[nH]c(-c4cnccc4C(N)=O)cc3c2)c1C [P-2272, 3-[5-[(3,4-dimethyl-1H-pyrazole-5-carbonyl)amino]-1H-pyrrolo[2,3-b]pyridin-2-yl]pyridine-4-carboxamide] | 10 to 200
7 | Cc1n[nH]c(C(=O)Nc2cnc3[nH]c(-c4cccc5c4OCC5)cc3c2)c1C [P-2273, N-[2-(2,3-dihydrobenzofuran-7-yl)-1H-pyrrolo[2,3-b]pyridin-5-yl]-3,4-dimethyl-H-pyrazole-5-carboxamide] | 10 to 200
8 | Cc1n[nH]c(C(=O)Nc2cnc3[nH]c(-c4cccc(N5CCNCC5)c4)cc3c2)c1C [P-2274, 3,4-dimethyl-N-[2-(3-piperazin-1-ylphenyl)-1H-pyrrolo[2,3-b]pyridin-5-yl]-1H-pyrazole-5-carboxamide] | 0.0001 to 1
9 | Cc1cc(Cl)ccc1-c1cc2cc(NC(=O)c3[nH]nc(C)c3C)cnc2[nH]1 [P-2277, N-[2-(4-chloro-2-methyl-phenyl)-1H-pyrrolo[2,3-b]pyridin-5-yl]-3,4-dimethyl-1H-pyrazole-5-carboxamide] | 10 to 200
10 | Cc1n[nH]c(C(=O)Nc2cnc3[nH]c(-c4ccncc4Cl)cc3c2)c1C [P-2278, N-[2-(3-chloro-4-pyridyl)-H-pyrrolo[2,3-b]pyridin-5-yl]-3,4-dimethyl-1H-pyrazole-5-carboxamide] | 10 to 200
11 | Cc1n[nH]c(C(=O)Nc2cnc3[nH]c(-c4ccc(F)nc4F)cc3c2)c1C [P-2280, N-[2-(2,6-difluoro-3-pyridyl)-1H-pyrrolo[2,3-b]pyridin-5-yl]-3,4-dimethyl-1H-pyrazole-5-carboxamide] | 10 to 200
12 | Cc1n[nH]c(C(=O)Nc2cnc3[nH]c(-c4cccc5c4OC(F)(F)O5)cc3c2)c1C [P-2281, N-[2-(2,2-difluoro-1,3-benzodioxol-4-yl)-1H-pyrrolo[2,3-b]pyridin-5-yl]-3,4-dimethyl-1H-pyrazole-5-carboxamide] | 10 to 200
13 | Cc1cc(-c2cc3cc(NC(=O)c4[nH]nc(C)c4C)cnc3[nH]2)cnc1C [P-2282, N-[2-(5,6-dimethyl-3-pyridyl)-1H-pyrrolo[2,3-b]pyridin-5-yl]-3,4-dimethyl-1H-pyrazole-5-carboxamide] | 1 to 10
14 | COc1ccc(-c2cc3cc(NC(=O)c4[nH]nc(C)c4C)cnc3[nH]2)c(C)c1C [P-2284, N-[2-(4-methoxy-2,3-dimethyl-phenyl)-1H-pyrrolo[2,3-b]pyridin-5-yl]-3,4-dimethyl-1H-pyrazole-5-carboxamide] | 1 to 10
15 | Cc1nn(C2CN(C(=O)OC(C)(C)C)C2)cc1-c1cc2cc(NC(=O)c3[nH]nc(C)c3C)cnc2[nH]1 [P-2285, tert-butyl 3-[4-[5-[(3,4-dimethyl-1H-pyrazole-5-carbonyl)amino]-1H-pyrrolo[2,3-b]pyridin-2-yl]-3-methyl-pyrazol-1-yl]azetidine-1-carboxylate] | 0.0001 to 1
16 | Cc1nn(C2CNC2)cc1-c1cc2cc(NC(=O)c3[nH]nc(C)c3C)cnc2[nH]1 [P-2286, N-[2-[1-(azetidin-3-yl)-3-methyl-pyrazol-4-yl]-1H-pyrrolo[2,3-b]pyridin-5-yl]-3,4-dimethyl-1H-pyrazole-5-carboxamide] | 0.0001 to 1
17 | O=C(Nc1cnc2[nH]c(-c3ccccc3)cc2c1)c1cccc2n[nH]cc12 [P-2289, N-(2-phenyl-1H-pyrrolo[2,3-b]pyridin-5-yl)-2H-indazole-4-carboxamide] | 0.0001 to 1
18 | COC(=O)c1cccc(C(=O)Nc2cnc3[nH]c(-c4ccccc4)cc3c2)c1 [P-2290, methyl 3-[(2-phenyl-1H-pyrrolo[2,3-b]pyridin-5-yl)carbamoyl]benzoate] | 10 to 200
19 | O=C(O)c1cccc(C(=O)Nc2cnc3[nH]c(-c4ccccc4)cc3c2)c1 [P-2291, 3-[(2-phenyl-1H-pyrrolo[2,3-b]pyridin-5-yl)carbamoyl]benzoic acid] | 10 to 200
20 | Cc1n[nH]c(C(=O)Nc2cnc3[nH]c(-c4ccc(C(=O)O)c(F)c4)cc3c2)c1C [P-2292, 4-[5-[(3,4-dimethyl-1H-pyrazole-5-carbonyl)amino]-1H-pyrrolo[2,3-b]pyridin-2-yl]-2-fluoro-benzoic acid] | 0.0001 to 1
21 | Cc1n[nH]c(C(=O)Nc2cnc3[nH]c(-c4cccc(CC(=O)O)c4)cc3c2)c1C [P-2293, 2-[3-[5-[(3,4-dimethyl-1H-pyrazole-5-carbonyl)amino]-1H-pyrrolo[2,3-b]pyridin-2-yl]phenyl]acetic acid] | 0.0001 to 1
22 | Cc1n[nH]c(C(=O)Nc2cnc3[nH]c(-c4ccc(C5(C(=O)O)CC5)cc4)cc3c2)c1C [P-2294, 1-[4-[5-[(3,4-dimethyl-1H-pyrazole-5-carbonyl)amino]-1H-pyrrolo[2,3-b]pyridin-2-yl]phenyl]cyclopropanecarboxylic acid] | 0.0001 to 1
23 | Cc1n[nH]c(C(=O)Nc2cnc3[nH]c(-c4ccc(CC(=O)O)cc4)cc3c2)c1C [P-2295, 2-[4-[5-[(3,4-dimethyl-1H-pyrazole-5-carbonyl)amino]-1H-pyrrolo[2,3-b]pyridin-2-yl]phenyl]acetic acid] | 0.0001 to 1
24 | Cc1cc(-c2cc3cc(NC(=O)c4[nH]nc(C)c4C)cnc3[nH]2)ccc1C(=O)O [P-2296, 4-[5-[(3,4-dimethyl-1H-pyrazole-5-carbonyl)amino]-1H-pyrrolo[2,3-b]pyridin-2-yl]-2-methyl-benzoic acid] | 0.0001 to 1
25 | Cc1n[nH]c(C(=O)Nc2cnc3[nH]c(-c4cccc(C(=O)O)c4C)cc3c2)c1C [P-2297, 3-[5-[(3,4-dimethyl-1H-pyrazole-5-carbonyl)amino]-1H-pyrrolo[2,3-b]pyridin-2-yl]-2-methyl-benzoic acid] | 0.0001 to 1
